In ChEMBL document CHEMBL5712891, “Inhibition of BET bromodomain-dependent XIAP and FLIP expression sensitizes KRAS-mutated NSCLC to pro-apoptotic agents” (Cell Death Dis, 2016) one finds Activity, viability and T/C data, which are given here for three compounds.

Calls of active or inactive are those of the source. The rule behind the calls is not given here.

The subject of series [1] is A549. The experiment in a line: Induction of cell cycle arrest in human A549 cells assessed as accumulation of cells at S phase at 1 uM for 24 hrs by Click-iT EdU Alexa Fluor 647 flow cytometric assay kit analysis (reference value: 35%). The class given is functional. Background: In flow cytometry, cells or beads pass a laser one at a time.
The test system of series [2] is A549. The experiment in a line: Induction of cell cycle arrest in human A549 cells assessed as accumulation of cells at G2/M phase at 0.5 uM for 24 hrs by Click-iT EdU Alexa Fluor 647 flow cytometric assay kit analysis (reference value: 3%). It counts as functional.
The subject of series [3] is A549. The experiment in a line: Induction of cell cycle arrest in human A549 cells assessed as accumulation of cells at S phase at 0.1 uM for 24 hrs by Click-iT EdU Alexa Fluor 647 flow cytometric assay kit analysis (reference value: 35%). The class given is functional.
For series [4], the system named is DV-90. The experiment in a line: Induction of cell cycle arrest in human DV-90 cells assessed as accumulation of cells at G2/M phase at 0.1 uM for 24 hrs by Click-iT EdU Alexa Fluor 647 flow cytometric assay kit analysis (reference value: 24%). It counts as functional.
For series [5], the system named is DV-90. The series is described as follows: Induction of cell cycle arrest in human DV-90 cells assessed as accumulation of cells at G0/G1 phase at 0.5 uM for 24 hrs by Click-iT EdU Alexa Fluor 647 flow cytometric assay kit analysis (reference value: 44%). It counts as functional.
Series [6] has as its system DV-90. The series is described as follows: Induction of apoptosis in human DV-90 cells assessed as early apoptotic cells at 2.5 uM for 24 hrs by annexin V-PI staining based flow cytometric analysis (reference value: 1.7%). The class given is functional.
The subject of series [7] is DV-90. The series is described as follows: Induction of apoptosis in human DV-90 cells assessed as necrotic cells at 2.5 uM for 24 hrs by annexin V-PI staining based flow cytometric analysis (reference value: 5.4%). The class given is functional.
Series [8] deals with NCI-H1373. The experiment in a line: Induction of apoptosis in human NCI-H1373 cells assessed as viable cells at 0.5 uM for 24 hrs by annexin V-PI staining based flow cytometric analysis (reference value: 77.7%). The class given is functional. As to conditions: read-out: Activity.
Series [9] relates to NCI-H1373. The experiment in a line: Induction of apoptosis in human NCI-H1373 cells assessed as viable cells at 2.5 uM for 24 hrs by annexin V-PI staining based flow cytometric analysis (reference value: 77.7%). The class given is functional. Particulars: read-out: Activity.
In series [10] the test system is NCI-H460. The series is described as follows: Induction of apoptosis in human NCI-H460 cells assessed as viable cells at 0.5 uM for 24 hrs by annexin V-PI staining based flow cytometric analysis (reference value: 94%). The class given is functional. As to conditions: read-out: Activity.
Series [11] has as its system NCI-H1792. The experiment in a line: Downregulation of c-MYC mRNA expression level in human NCI-H1792 cells at 0.1 to 1 uM for 24 hrs by qRT-PCR analysis. It counts as functional, cell-based. As to conditions: dose 0.1-1 µM. A general note: Real-time PCR tracks product formation cycle by cycle.
The subject of series [12] is NCI-H2030. The series is described as follows: Downregulation of c-MYC mRNA expression level in human NCI-H2030 cells at 0.1 to 1 uM for 24 hrs by qRT-PCR analysis. It counts as functional, cell-based. Particulars: dose 0.1-1 µM.
Series [13] concerns NCI-H1373. The experiment in a line: Downregulation of FLIP mRNA expression level in human NCI-H1373 cells at 0.1 to 1 uM for 24 hrs by qRT-PCR analysis. The class given is functional, cell-based. As to conditions: dose 0.1-1 µM.
Series [14] relates to NCI-H441. The series is described as follows: Downregulation of FLIP mRNA expression level in human NCI-H441 cells at 0.1 to 1 uM for 24 hrs by qRT-PCR analysis. It counts as functional, cell-based. As to conditions: dose 0.1-1 µM.
The subject of series [15] is SK-LU-1. The series is described as follows: Downregulation of XIAP protein expression level in human SK-LU-1 cells at 1 uM for 24 hrs by […] analysis. It counts as functional, cell-based.
Series [16] deals with NCI-H358. The series is described as follows: Downregulation of c-MYC protein expression level in human NCI-H358 cells at 1 uM for 24 hrs by […] analysis. The class given is functional, cell-based.
For series [17], the system named is NCI-H1373. The experiment in a line: Induction of TRAIL dependent apoptosis in human NCI-H1373 cells assessed as early apoptotic cells at 1 uM by annexin V-PI staining based flow cytometric analysis (reference value: 0.5%). The class given is functional.
Series [18] has as its system NCI-H1373. The series is described as follows: Induction of TRAIL dependent apoptosis in human NCI-H1373 cells assessed as late apoptotic cells at 1 uM in presence of […] by annexin V-PI staining based flow cytometric analysis (reference value: 8.3%). The class given is functional.
In series [19] the test system is A549. The experiment in a line: Induction of apoptosis in human A549 cells assessed as early apoptotic cells at 1 uM by annexin V-PI based flow cytometric analysis (reference value: 0.2%). It counts as functional.
The subject of series [20] is A549. The series is described as follows: Induction of apoptosis in human A549 cells assessed as early apoptotic cells at 1 uM in presence of cisplatin by annexin V-PI based flow cytometric analysis (reference value: 0.2%). The class given is functional.
The nature of series [21]: Toxicity in SCID mouse xenografted with human A549 cells assessed as body weight loss administered at 80 mg/kg, ip for 7 days along with cisplatin for 5 days follwed by compound treatment for 14 days relative to control. It counts as organism-based. Particulars: in vivo, 672 h, time 28 day.
Series [22] deals with A549. The experiment in a line: Antitumor activity against human A549 cells assessed as test to control tumor ratio at 50 mg/kg, ip for 28 days relative to control. It counts as functional. Particulars: time 28 day.
Series [23] concerns A549. The experiment in a line: Antitumor activity against human A549 cells assessed as test to control tumor ratio at 80 mg/kg, ip for 28 days relative to control. As to conditions: time 28 day. It counts as functional.
The subject of series [24] is A549. The experiment in a line: Antitumor activity against human A549 cells assessed as test to control tumor ratio administered at 80 mg/kg, ip for 7 days along with cisplatin for 5 days follwed by compound treatment for 14 days relative to control. It counts as functional. As to conditions: time 7 day.
Series [25] has as its system DV-90. The experiment in a line: Induction of cell cycle arrest in human DV-90 cells assessed as accumulation of cells at G0/G1 phase at 1 uM for 24 hrs by Click-iT EdU Alexa Fluor 647 flow cytometric assay kit analysis (reference value: 47%). The class given is functional.
Series [26] concerns DV-90. The experiment in a line: Induction of cell cycle arrest in human DV-90 cells assessed as accumulation of cells at G2/M phase at 1 uM for 24 hrs by Click-iT EdU Alexa Fluor 647 flow cytometric assay kit analysis (reference value: 21%). It counts as functional.
Series [27] relates to NCI-H1373. The experiment in a line: Induction of apoptosis in human NCI-H1373 cells assessed as early apoptotic cells at 2.5 uM for 24 hrs by annexin V-PI staining based flow cytometric analysis (reference value: 1.7%). The class given is functional.
The subject of series [28] is NCI-H460. The experiment in a line: Induction of apoptosis in human NCI-H460 cells assessed as viable cells at 0.5 uM for 24 hrs by annexin V-PI staining based flow cytometric analysis (reference value: 92.8%). Particulars: read-out: Activity. The class given is functional.
In series [29] the test system is DV-90. The experiment in a line: Induction of cell cycle arrest in human DV-90 cells assessed as accumulation of cells at S phase at 0.1 uM for 24 hrs by Click-iT EdU Alexa Fluor 647 flow cytometric assay kit analysis (reference value: 30%). It counts as functional.
Series [30] relates to NCI-H1373. The series is described as follows: Induction of cell cycle arrest in human NCI-H1373 cells assessed as accumulation of cells at G0/G1 phase at 0.5 uM for 24 hrs by Click-iT EdU Alexa Fluor 647 flow cytometric assay kit analysis (reference value: 45%). The class given is functional.
For series [31], the system named is NCI-H460. The experiment in a line: Induction of cell cycle arrest in human NCI-H460 cells assessed as accumulation of cells at S phase at 0.1 uM for 24 hrs by Click-iT EdU Alexa Fluor 647 flow cytometric assay kit analysis (reference value: 54%). The class given is functional.
Series [32] concerns NCI-H460. The series is described as follows: Induction of cell cycle arrest in human NCI-H460 cells assessed as accumulation of cells at S phase at 1 uM for 24 hrs by Click-iT EdU Alexa Fluor 647 flow cytometric assay kit analysis (reference value: 54%). It counts as functional.

In general, T/C refers to the result in the treated group divided by that in the control group, in per cent. Regarding `Cc1sc2c(c1C)C(c1ccc(Cl)cc1)=N[C@@H](CC(=O)OC(C)(C)C)c1nnc(C)n1-2`, the Activity in [1] came out at 32%; in [2] it was 3%; in [3], 36%; in [4], 31%; in series [5], 51%; in series [6], 1.9%. For the same compound, the Activity came out at 31% in series [7]; 2.4% in series [17]; 35.9% in series [18]; 0.1% in series [19]; 2.2% in [20]. The values for the viability at 0.5 µM in series [8] and in series [10] were 64.3% and 91.2%, respectively. Besides, in series [9], the viability at 2.5 µM is 58%. For the same compound, the result in series [11], in [12], in series [13], in series [14], in series [15] and in [16] was Active. Also, the T/C is recorded as 10% in [21], 79% in series [22], 60% in [23] and 41% in series [24].

For the compound `Cc1sc2c(c1C)C(c1ccc(Cl)cc1)=N[C@@H](CC(=O)Nc1ccc(O)cc1)c1nnc(C)n1-2` [BIRABRESIB], the Activity in [25] amounted to 60%; in [26], 22%; in series [27], 1.8%. Also, the viability at 0.5 µM in [28] worked out at 90.6%.

Take `CCNC(=O)C[C@@H]1N=C(c2ccc(Cl)cc2)c2cc(OC)ccc2-n2c(C)nnc21` [MOLIBRESIB]: the Activity is 27% in series [29], 47% in series [30], 53% in series [31] and 47% in series [32].
